Results: US20240252655A1, “DEUBIQUITINASE-TARGETING CHIMERAS AND RELATED METHODS” (Novartis AG, priority 2021, published 2024)

Key:
CFTR-OTUB1 complex = CFTR-OTUB1 complex (Homo sapiens, UniProt P13569+Q96FW1, DEL508-508); test: Native mass spectrometry analysis of ternary complex formation; settings: native MS; recombinant OTUB1 and DF508-harboring CFTR nucleotide-binding domain; 50 μM compound final
Protocol: FIGS. 15A-15D are images that confirm formation of a ternary complex between CFTR, an exemplary bifunctional compound (Compound 201), and OTUB1 in vitro using recombinant protein and native mass spectrometry (MS)-based approaches. FIGS. 15A-15C depict native mass spectra of CFTR-OTUB1 complex formation in the presence of DMSO (FIG. 15A), the DUB Recruiter Compound 100 alone (FIG. 15B), or the bifunctional compound Compound 201 (FIG. 15C).
Native mass spectrometry experiments were performed on a Thermo QE UHMR equipped with a nano-electrospray ionization source (Advion TriVersa NanoMate). Recombinant OTUB1 was first buffer exchanged into 150 mM ammonium acetate, 100 μM MgCl2, and 100 μM ATP at pH 6.7. 4 μM OTUB1 was then pre-incubated at room temperature for 24 hours with either DMSO, DUB Recruiter Compound 100 (100 μM), or DUBTAc Compound […] (100 μM). After 24 hours, 4 μM CFTR, in the same buffer, was added to the OTUB1 solution, for final concentrations of 2 μM of each protein with either DMSO or 50 μM compound. The solution was then allowed to incubate for 30 minutes prior to analysis on the mass spectrometer. Mass spectra were recorded in positive ion mode with a mass range of 1000-8000 m/z. Each spectrum was then deconvoluted and relevant peaks were integrated to determine % ternary complex formed. All experiments were performed in triplicate.

OTUB1 [1] = target: T1, OTUB1 (Homo sapiens, UniProt Q96FW1); test: In vitro reconstituted OTUB1 deubiquitination activity assay (monoubiquitin release from di-ubiquitin); type: biochemical; set-up: dose or concentration left out as unconfirmed; settings: in the presence of UBE2D1; OTUB1 pre-incubated with Compound 100 for 1 hr; Western blotting
Protocol: These studies were performed in the presence of OTUB1-stimulating Ubiquitin-conjugating enzyme E2 D1 (UBE2D1), an E2 ubiquitin ligase that engages in a complex with OTUB1 to stimulate OTUB1 activity.
Previously described methods were used to assess DUB Recruiters effects on OTUB1 activity. Recombinant OTUB1 (500 nM) was pre-incubated with DMSO or Compound 100 […] for 1 hr. To initiate assay pre-treated OTUB1 enzyme was mixed 1:1 with di-Ub reaction mix for final concentrations of 250 nM OTUB1, 1.5 μM di-Ub, 12.5 μM UBE2D1 and 5 mM DTT. The appearance of mono-Ub was monitored by Western blotting over time by removing a portion of the reaction mix and adding Laemmli's buffer to terminate the reaction. Blot shown is a representative gel from n=3 biologically independent experiments/group.
Target sequence in this assay (Q96FW1 whole entry): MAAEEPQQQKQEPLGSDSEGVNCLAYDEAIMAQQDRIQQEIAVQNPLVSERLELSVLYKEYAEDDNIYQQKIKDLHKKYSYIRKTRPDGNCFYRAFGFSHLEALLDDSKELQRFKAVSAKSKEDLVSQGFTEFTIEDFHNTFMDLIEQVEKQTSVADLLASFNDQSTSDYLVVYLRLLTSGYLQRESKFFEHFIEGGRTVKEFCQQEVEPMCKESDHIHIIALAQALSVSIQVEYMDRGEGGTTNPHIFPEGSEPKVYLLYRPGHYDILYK
Target sequence in this assay (P51668 whole entry partner): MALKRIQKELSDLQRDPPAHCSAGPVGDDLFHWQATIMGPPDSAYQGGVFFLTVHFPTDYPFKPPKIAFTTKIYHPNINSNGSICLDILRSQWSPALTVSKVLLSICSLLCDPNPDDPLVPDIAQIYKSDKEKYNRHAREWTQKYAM

OTUB1 [2] = target: T1, OTUB1; test: Gel-based ABPP: competition against IA-rhodamine labeling of OTUB1; type: binding; settings: pre-incubated with OTUB1 30 min at 37° C.; IA-rhodamine 500 nM, 30 min room temperature; in-gel fluorescence; n=3
Protocol: Vehicle (DMSO) or an exemplary DUB Recruiter (Compound 100) were pre-incubated with OTUB1 for 30 min at 37° C. prior to IA-rhodamine labeling (500 nM, 30 min room temperature). OTUB1 was then separated by SDS/PAGE and in-gel fluorescence was assessed. Protein loading is illustrated by silver staining. The gel shown is representative gel of n=3 biologically independent samples/group.
Recombinant OTUB1 ([…]) was pre-treated with either DMSO vehicle or covalent ligand or bifunctional compounds at 37° C. for 30 min in 25 μL of PBS, and subsequently treated with of IA-Rhodamine (Setareh Biotech) at room temperature for 1 h. The reaction was stopped by addition of 4× reducing Laemmli SDS sample loading buffer (Alfa Aesar). After boiling at 95° C. for 5 min, the samples were separated on precast 4-20% Criterion TGX gels (Bio-Rad). Probe-labeled proteins were analyzed by in-gel fluorescence using a ChemiDoc MP (Bio-Rad).
A covalent ligand screen of cysteine-reactive libraries competed against IA-rhodamine labeling of a recombinant exemplary deubiquitinase OTUB1 was carried out to identify small molecule binders to OTUB1 by gel-based activity-based protein profiling (ABPP). […] OTUB1 was then separated by SDS/PAGE and in-gel fluorescence was assessed and quantified.
Target sequence in this assay (Q96FW1 whole entry): as the sequence (Q96FW1 whole entry) above

OTUB1 [3] = target: T1, OTUB1; test: LC-MS/MS analysis of tryptic peptides from OTUB1 covalently bound to DUB Recruiter; type: binding; settings: tryptic peptides from OTUB1 covalently bound to compound
Target sequence in this assay (Q96FW1 whole entry): as above

CFTR-OTUB1 complex, sequence (Q96FW1 whole entry, stated change not applied, the tested form may be a part): as the sequence (Q96FW1 whole entry) above
CFTR-OTUB1 complex, sequence (P13569 with tags, fused parts or gaps DEL508-508 limits assumed): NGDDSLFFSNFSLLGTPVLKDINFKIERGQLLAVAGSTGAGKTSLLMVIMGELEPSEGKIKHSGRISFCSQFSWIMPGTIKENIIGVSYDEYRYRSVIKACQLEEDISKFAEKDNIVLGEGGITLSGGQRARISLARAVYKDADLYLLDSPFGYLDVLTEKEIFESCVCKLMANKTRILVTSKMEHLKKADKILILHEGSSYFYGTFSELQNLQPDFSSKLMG

Structure (SMILES)	CFTR-OTUB1 complex formation (CFTR-OTUB1 complex)	OTUB1 deubiquitination activity (monoubiquitin release from di-ubiquitin) (OTUB1 [1])	inhibition of IA-rhodamine binding of OTUB1 (OTUB1 [2])	cysteine of OTUB1 targeted (covalent modification site) (OTUB1 [3])	modification of the catalytic C91 of OTUB1 (OTUB1 [3])
C=CC(=O)N1CCN(c2ccc(CCC(=O)NCCCCCNC(=O)c3cccc(-c4nc(NC(=O)C5(c6ccc7c(c6)OC(F)(F)O7)CC5)ccc4C)c3)o2)C(=O)C1 [Compound 201, N-(5-(3-(5-(4-acryloyl-2-oxopiperazin-1-yl)furan-2-yl)propanamido)pentyl)-3-(6-(1-(2,2-difluorobenzo[d][1,3]dioxol-5-yl)cyclopropane-1-carboxamido)-3-methylpyridin-2-yl)benzamide]	significant CFTR-OTUB1 complex formation was observed	–	–	–	–
C=CC(=O)N1CCN(c2ccc(C)o2)C(=O)C1 [Compound 100]	not	does not inhibit	dose-responsive inhibition	selectively targets C23	no detectable modification
